We go through 2 substances from patent publication US20160046665A1, “Peptide Ligand with Antibody Selectivity and the Application Thereof” (National Central University, priority 2014, published 2016).

Common to all, as to assay type: binding
One assay deals with PSA. Kind of assay: SPR sensitivity detection with micro concentration antigen, chip with Rabbit IgG. The note with it: Rabbit IgG absorbed on chip, Rabbit IgG flowed again for increasing signal, FIG. 7A. The source says:
In the following experiments, antigen in micro concentration is employed for detecting the sensitivity of peptide ligand chips being able to recognize Rabbit IgG and Mouse IgG2a, and the experimental results are shown in FIG. 7A and FIG. 7B.
Firstly, Rabbit IgG and Mouse IgG2a are respectively absorbed to GGEGELW and GGRRGW. After flowing micro concentration antigen through, Rabbit IgG and Mouse IgG2a are flowed through the chip surface for increasing the detected signal. […] According to FIG. 7A and FIG. 7B, the signal of about 2 ng/mL PSA can be detected from Mouse IgG2a of GGRRGW chip surface, and the signal of about 1 ng/mL PSA can be detected from Rabbit IgG of GGEGELW chip surface. Therefore, it proves that the peptide ligand of this specification can efficiently improve the antigen sensitivity.

Assay [1] deals with prostate specific antigen (PSA). As to the kind of experiment: SPR PSA absorption / antigen recognition on chip surfaces with Rabbit IgG. The note with it: FIG. 4A. The text has this:
(§1) In this example, SPR is employed for measuring the absorption of target antibody, rabbit immunoglobulin (Rabbit IgG), and target antigen, prostate specific antigen (PSA), on different charge surfaces and different peptide ligand surfaces. The mentioned different chip surfaces are employed for absorbing Rabbit IgG, washed with phosphate buffer (PB) solution, and employed to absorb PSA directly. Then, PB buffer solution is used to wash out the PSA not recognized by Rabbit IgG for measuring the absorption of antibody and antigen. The experimental process is roughly shown as following.
(§2) 1. 10 μg/mL Rabbit IgG is prepared in 0.01 M pH=7.4 PB buffer solution.
2. 5 μg/mL PSA is prepared in 0.01 M pH=7.4 PB buffer solution.
3. The negative charge, positive charge, and peptide ligand modified chips are put on SPR respectively.
4. The flow rate is set at 20 μL/min.
5. Rabbit IgG, PB, PSA, and PB are flowed through the channel in sequence. The absorption time is about 60 minutes, and the desorption time is about 50 minutes.
(§3) Different chips with Rabbit IgG and Mouse IgG2a are used for PSA absorption experiment, and the PSA absorption is transferred to protein absorption by the above-mentioned formula, as shown in FIG. 3A and FIG. 3B.
(§4) In order to compare antigen recognition efficiency, we define “antigen recognition efficiency” as following: […]

For assay [2] the test system is unchanged. Kind of assay: SPR PSA absorption / antigen recognition on chip surfaces with Mouse IgG2a.
From the text: as §1, §3, §4

A further assay relates to Rabbit IgG. As to the kind of experiment: SPR absorption of Rabbit IgG on different chip surfaces.
From the text: (§5) In this and the following examples, we employ Surface Plasmon resonance (SPR) as detecting equipment. The method for modifying SPR chip surface is briefly illustrated as following.
(§6) OEG [(11-Mercaptoundecyl)tetra(ethyleneglycol)] and OEG-COOH [HS(CH2)11(EG)6OCH2COOH] are mixed at the ratio of 10:1. Through strong gold-sulfur bonding, OEG and OEG-COOH are employed for modifying SPR chip surface to form mixed SAM (self-assembly monolayer). The mixed SAM surface comprises carboxyl group with negative charge, and hydroxyl group with hydrophilicity. The carboxyl group with negative charge on the SPR chip surface can be activated by EDC/20% DMSO. By reacting the 1° amino group of EDA (ethylenediamine) with the carboxyl group on the SPR chip surface to form amide bonding, the SPR chip surface can be modified into positive charge. And, in the same condition, the peptide ligand according to this invention can be grafted onto the SPR chip surface to form a peptide ligand surface.)
(§7) 1. 5 mM peptide ligand, 200 mM EDC, and 20% DMSO are prepared into 0.1 M pH=6.0 MES buffer solution.
as §1, §2
3. […]
(§8) In the above experiments, Surface Plasmon Resonance (SPR) is employed for measuring the antigen recognition efficiency of antibody on different modified chip surfaces. The recognition efficiency of Rabbit IgG and PSA on different chip with different charge surface and different peptide ligand is detected. […]

In assay [3] the test system is Mouse IgG2a. As to the kind of experiment: SPR analysis of antibody oriented immobilization (orientation factor), Mouse IgG2a. The settings on record: ratio of PSA and 2nd antibody, FIG. 6B. Background: SPR reads the build-up and loss of mass on a sensor chip optically.
Target sequence in this assay (P01863 98-330 limits assumed): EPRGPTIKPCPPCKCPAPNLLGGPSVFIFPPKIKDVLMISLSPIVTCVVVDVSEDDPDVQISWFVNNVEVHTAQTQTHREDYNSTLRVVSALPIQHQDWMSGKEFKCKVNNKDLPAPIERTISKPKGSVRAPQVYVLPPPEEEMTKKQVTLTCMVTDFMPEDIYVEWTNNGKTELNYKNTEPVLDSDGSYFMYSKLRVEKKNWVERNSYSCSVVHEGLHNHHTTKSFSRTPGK
For assay [4], the system named is Mouse IgG2a. As to the kind of experiment: SPR absorption of Mouse IgG2a on different chip surfaces. The settings on record: FIG. 2.
From the text: as §5, §6, §7, §8

Entries after “also recorded” stand apart in the source; their conditions may differ.

Chain of Rabbit IgG (P01870 101-323 limits assumed): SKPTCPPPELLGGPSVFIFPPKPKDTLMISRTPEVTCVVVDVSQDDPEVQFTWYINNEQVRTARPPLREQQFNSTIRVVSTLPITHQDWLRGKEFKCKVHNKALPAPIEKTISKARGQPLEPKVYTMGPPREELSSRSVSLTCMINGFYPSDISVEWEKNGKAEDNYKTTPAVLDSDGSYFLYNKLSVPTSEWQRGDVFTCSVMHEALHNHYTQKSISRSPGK

As for GGEGELW, the “PSA concentration whose signal can be detected by SPR” value in the assay on PSA is reported as “about 1 ng/mL”.

Turning to RRGW, the “antigen recognition efficiency of Rabbit IgG” value in assay [1] is “not good”. Besides, in assay [2] (PSA, FIG. 4B), the “antigen recognition efficiency of Mouse IgG2a” value is “great”. In assay [2] (SPR, FIG. 3B), the “PSA absorption on chip surface with Mouse IgG2a (in words)” value is given as “great”. Also, the “oriented immobilization of Mouse IgG2a on chip surface” value in assay [2] (deduced from Mouse IgG2a and PSA absorption) is recorded as “great”. Besides, the “specificity to these antibodies” value in the assay with Rabbit IgG (Rabbit IgG versus Mouse IgG2a absorption, FIG. 1B compared with FIG. 2) is reported as “does not have specificity”. In addition, the “Rabbit IgG absorption on chip surface (in words)” value in the assay on Rabbit IgG (SPR, FIG. 1B) is “not much difference; also recorded: great”. Also, the “Rabbit IgG absorption to the chip surface” value in the assay with Rabbit IgG (SPR, peptide ligand chip surface, FIG. 3A) is given as “about 0.2 mol/cm^2”. Moreover, in the assay with Mouse IgG2a [3], the “orientation factor, chip surface with Mouse IgG2a” value is given as “good”. The “Mouse IgG2a absorption on chip surface (in words)” value with Mouse IgG2a [4] is “great; also recorded: higher”.
